From patent publication US9115145B2, “Tocotrienol derivatives and associated methods” (FIRST TECH INTERNATIONAL LIMITED, priority 2011, dated 2015)
Like-named read-outs stand apart in the source and are kept apart here.

Assays:
[1] = system: 60 human tumor cell lines; assay: NCI in vitro screening against 60 human cell lines, single concentration; format: cell-based; details: 10 μM dose; negative values indicate cytotoxicity
Experimental: Compounds selected from Compounds 3-44 were provided to the National Cancer Institute for in vitro screening against 60-human cell lines for their ability to inhibit the growth of tumor cells in a full panel representing nine different organs (blood, lung, colon, CNS, skin, ovary, kidney, prostate, and breast). The compounds were tested at a single concentration of 10 μM, and the percentages of growth inhibitions over the sixty tested cell lines were determined. Compounds showing the highest activity were chosen for secondary assays using five different compound concentrations.
The human tumor cell lines of the cancer screening panel were grown in RPMI 1640 medium containing 5% fetal bovine serum and 2 mM L-glutamine. For a typical screening experiment, cells are inoculated into 96 well microtiter plates in 100 μL at plating densities ranging from 5000 to 40,000 cells/well depending on the doubling time of individual cell lines. After cell inoculation, the microtiter plates are incubated at 37° C., 5% CO2, 95% air and 100% relative humidity for 24 hours prior to addition of experimental drugs. After 24 hours, two plates of each cell line are fixed in situ with Trichloroacetic acid (“TCA”), to represent a measurement of the cell population for each cell line at the time of drug addition. Experimental drugs are solubilized in dimethyl sulfoxide at 400-fold the desired final maximum test concentration and stored frozen prior to use. At the time of drug addition, an aliquot of frozen concentrate is thawed and diluted to twice the desired final maximum test concentration with complete medium containing 50 ng/mL gentamicin. An aliquot of 100 μL of this drug dilution is added to the appropriate microtiter wells already containing 100 μL of medium, resulting in the required final drug concentrations. Following drug addition, the plates are incubated for an additional 48 h at 37° C., 5% CO2, 95% air, and 100% relative humidity. For adherent cells, the assay is terminated by the addition of cold TCA. Cells are fixed in situ by the gentle addition of 50 μL of cold 50% (w/v) TCA (final concentration, 10% TCA) and incubated for 60 min at 4° C. The supernatant is discarded, and the plates are washed five times with tap water and air dried. Sulforhodamine B (SRB) solution (100 μL) at 0.4% (w/v) in 1% acetic acid is added to each well, and plates are incubated for 10 min at room temperature. After staining, unbound dye is removed by washing five times with 1% acetic acid and the plates are air dried. Bound stain is subsequently solubilized with 10 mM trizma base, and the absorbance is read on an automated plate reader at a wavelength of 515 nm. For suspension cells, the methodology is the same except that the assay is terminated by fixing settled cells at the bottom of the wells by gently adding 50 μL of 80% TCA (final concentration, 16% TCA). FIGS. 37-74 indicate the growth inhibition effects of selected Compounds against a variety of cell lines based on the above described testing configuration. FIGS. 37-74 present the Growth percent for a given compound against the cell lines and both values and a bar chart of the difference between the mean growth percent and the growth percent which is an indication of the selectivity of the compound for that particular cell line.

[2] = system: MDA-MB-231 human breast cancer cell line; assay: MTT assay of MDA-MB-231 cells; format: cell-based; details: Homo sapiens, media containing 5% fetal bovine serum
Experimental: (§1) MDA-MB-231 and MCF7 cells were plated at a density of 8×10^3 cells/well and 10^4 cells/well in 96-well culture plates, respectively. The compounds were fed in serum free media containing 5% and 1% fetal bovine serum for MDA-MB-231 and MCF7 cells, respectively.

[3] = system: MDA-MB-231 human breast cancer cells; assay: Wound-healing assay (cell migration); format: cell-based; details: Homo sapiens; MDA-MB-231, wound-healing assay, dose response; read-out: IC50 antimigratory activity
Summary of the method: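 Scratch wounds made in confluent (>95%) monolayers, then compounds added in fresh medium (5 μM in screening; concentration range in follow-up), DMSO as negative control, triplicate. After 24 h serum-starved at 37 °C, cells fixed and Diff-Quick stained. Migrated cells counted per 400× field (≥3 fields); IC50 from concentration range.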

[4] = system: MCF 10A non-tumorigenic mammary epithelial cells; assay: MTT assay of MCF10A cells; format: cell-based, human; details: for IC50: Homo sapiens; for Selectivity index: IC50 for MCF 10A divided by IC50 for +SA cell line
Summary of the method: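 MCF 10A non-tumorigenic human mammary epithelial cells were seeded at 10×10^4 cells/well and treated with compounds in serum-free medium, final DMSO below 0.1%. Viability was read by MTT, and IC50 came from non-linear regression. Selectivity index = MCF 10A IC50 ÷ +SA cell line IC50.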

[5] = system: MCF7 human breast cancer cell line; assay: MTT assay of MCF7 cells; format: cell-based; details: Homo sapiens, media containing 1% fetal bovine serum
Experimental: as §1

[6] = system: leukemia and colon cancer cell lines; assay: NCI screening at several concentrations (GI50, TGI, LC50); format: cell-based, human
Experimental: The human tumor cell lines of the cancer screening panel were grown in RPMI 1640 medium containing 5% fetal bovine serum and 2 mM L-glutamine. For a typical screening experiment, cells are inoculated into 96 well microtiter plates in 100 μL at plating densities ranging from 5000 to 40,000 cells/well depending on the doubling time of individual cell lines. After cell inoculation, the microtiter plates are incubated at 37° C., 5% CO2, 95% air and 100% relative humidity for 24 hours prior to addition of experimental drugs. After 24 hours, two plates of each cell line are fixed in situ with Trichloroacetic acid (“TCA”), to represent a measurement of the cell population for each cell line at the time of drug addition. Experimental drugs are solubilized in dimethyl sulfoxide at 400-fold the desired final maximum test concentration and stored frozen prior to use. At the time of drug addition, an aliquot of frozen concentrate is thawed and diluted to twice the desired final maximum test concentration with complete medium containing 50 ng/mL gentamicin. An aliquot of 100 μL of this drug dilution is added to the appropriate microtiter wells already containing 100 μL of medium, resulting in the required final drug concentrations. Following drug addition, the plates are incubated for an additional 48 h at 37° C., 5% CO2, 95% air, and 100% relative humidity. For adherent cells, the assay is terminated by the addition of cold TCA. Cells are fixed in situ by the gentle addition of 50 μL of cold 50% (w/v) TCA (final concentration, 10% TCA) and incubated for 60 min at 4° C. The supernatant is discarded, and the plates are washed five times with tap water and air dried. Sulforhodamine B (SRB) solution (100 μL) at 0.4% (w/v) in 1% acetic acid is added to each well, and plates are incubated for 10 min at room temperature. After staining, unbound dye is removed by washing five times with 1% acetic acid and the plates are air dried. Bound stain is subsequently solubilized with 10 mM trizma base, and the absorbance is read on an automated plate reader at a wavelength of 515 nm. For suspension cells, the methodology is the same except that the assay is terminated by fixing settled cells at the bottom of the wells by gently adding 50 μL of 80% TCA (final concentration, 16% TCA). FIGS. 37-74 indicate the growth inhibition effects of selected Compounds against a variety of cell lines based on the above described testing configuration. FIGS. 37-74 present the Growth percent for a given compound against the cell lines and both values and a bar chart of the difference between the mean growth percent and the growth percent which is an indication of the selectivity of the compound for that particular cell line. […]

[7] = MCF-10A, MCF10A cells, Table II, non-linear regression, read-out: MCF10A (IC50)
[8] = MCF 10A non-tumorigenic cells, Table I, read-out: IC50 MCF 10A

Row | SMILES | mean percent growth across all 60 cell lines (mean 60) [1] | IC50 [2] [nM] | IC50 [3] [nM] | IC50 [4, 7] [nM] | IC50 [4, 8] [nM] | Selectivity index [4] | IC50 [5] [nM] | GI50 [6]
1 | CC(C)=CCC/C(C)=C/CC/C(C)=C/CC[C@]1(C)CCc2c3c(cc(C)c2O1)OCN(CCCCCCCCO)C3 [Compound 40, 8-((R)-6,8-dimethyl-8-((3E,7E)-4,8,12-trimethyltrideca-3,7,11-trienyl)-9,10-dihydrochromeno[5,6-e][1,3]oxazin-2(1H,3H,8H)-yl)octan-1-ol] | negative | 11700 | 4900 | 1700 | 1700 | 2.15 | > 20000 | nanomolar
2 | CC(C)=CCC/C(C)=C/CC/C(C)=C/CC[C@]1(C)CCc2c3c(cc(C)c2O1)OCN(CCCCCCO)C3 [Compound 38, 6-((R)-6,8-dimethyl-8-((3E,7E)-4,8,12-trimethyltrideca-3,7,11-trienyl)-9,10-dihydrochromeno[5,6-e][1,3]oxazin-2(1H,3H,8H)-yl)hexan-1-ol] | negative | > 5000 | 1500 | 2500 | 2500 | 1.92 | > 20000 | nanomolar
